The record followed here is ChEMBL document CHEMBL2424643, “An efficient synthesis, characterization, and antimicrobial screening of tetrahydropyrimidine derivatives” (2013).

Holding throughout (type): functional
The subject of one assay is Candida albicans. The assay can be described thus: Antifungal activity against Candida albicans MTCC 227 by two-fold serial dilution method.
Another assay deals with Aspergillus niger. The assay can be described thus: Antifungal activity against Aspergillus niger MTCC 282 by two-fold serial dilution method.
In another assay the test system is Escherichia coli. The assay can be described thus: Antibacterial activity against Escherichia coli MTCC 443 by two-fold serial dilution method.
In the next assay the test system is Streptococcus pyogenes. The assay can be described thus: Antibacterial activity against Streptococcus pyogenes MTCC 442 by two-fold serial dilution method.
The next assay relates to Staphylococcus aureus. Briefly: Antibacterial activity against Staphylococcus aureus MTCC 96 by two-fold serial dilution method.
The test system of the next assay is Aspergillus clavatus. The assay can be described thus: Antifungal activity against Aspergillus clavatus MTCC 1323 by two-fold serial dilution method.
The subject of a further assay is Pseudomonas aeruginosa. The assay can be described thus: Antibacterial activity against Pseudomonas aeruginosa MTCC 1688 by two-fold serial dilution method.

Values after ≈ are worked out from the molar mass of the structure shown.

As to `COc1ccc(C2NC(=S)NC(C)=C2C(=O)Nc2ccc(C)cc2C)cc1` (configuration not stated), the minimum inhibitory concentration (MIC) with Candida albicans was determined as 3250 µM (≈ 1240 µg/mL); against Aspergillus niger, 3250 µM (≈ 1240 µg/mL); in the assay on Escherichia coli, 203 µM (≈ 77.4 µg/mL); in the assay with Streptococcus pyogenes, 406 µM (≈ 155 µg/mL); with Staphylococcus aureus, 203 µM (≈ 77.4 µg/mL); in the assay on Aspergillus clavatus it was 3250 µM (≈ 1240 µg/mL). This compound also yielded an MIC in the assay with Pseudomonas aeruginosa of 325 µM (≈ 124 µg/mL).

In the case of `CC1=C(C(=O)Nc2ccc(C)cc2C)C(c2ccc(Cl)cc2)NC(=S)N1` (configuration not stated), the MIC amounted to 3250 µM (≈ 1250 µg/mL) against Candida albicans; 3250 µM (≈ 1250 µg/mL) in the assay with Aspergillus niger; 812 µM (≈ 313 µg/mL) in the assay on Escherichia coli; 649 µM (≈ 251 µg/mL) with Streptococcus pyogenes; 812 µM (≈ 313 µg/mL) with Staphylococcus aureus; 3250 µM (≈ 1250 µg/mL) in the assay on Aspergillus clavatus. The compound also yielded an MIC with Pseudomonas aeruginosa of 649 µM (≈ 251 µg/mL).

In the case of `CC1=C(C(=O)Nc2ccc(C)cc2C)C(c2ccc([N+](=O)[O-])cc2)NC(=S)N1` (configuration not stated), the MIC against Candida albicans was 1620 µM (≈ 644 µg/mL); in the assay on Aspergillus niger it was 3250 µM (≈ 1290 µg/mL); in the assay with Escherichia coli it was 406 µM (≈ 161 µg/mL); with Streptococcus pyogenes, 812 µM (≈ 322 µg/mL); in the assay with Staphylococcus aureus it was 812 µM (≈ 322 µg/mL); against Aspergillus clavatus, 3250 µM (≈ 1290 µg/mL). Also, in the assay with Pseudomonas aeruginosa, the MIC turned out to be 812 µM (≈ 322 µg/mL).

For `CC1(C)S[C@@H]2[C@H](NC(=O)[C@H](N)c3ccccc3)C(=O)N2[C@H]1C(=O)O` [AMPICILLIN], the MIC was 100 µM (≈ 34.9 µg/mL) in the assay with Escherichia coli, 100 µM (≈ 34.9 µg/mL) with Streptococcus pyogenes, 250 µM (≈ 87.4 µg/mL) with Staphylococcus aureus and 100 µM (≈ 34.9 µg/mL) in the assay with Pseudomonas aeruginosa.

For the compound `CC1=C(C(=O)Nc2ccc(C)cc2C)C(c2cccc(Cl)c2)NC(=S)N1` (configuration not stated), the MIC against Candida albicans stood at 1620 µM (≈ 627 µg/mL); with Aspergillus niger, 3250 µM (≈ 1250 µg/mL); in the assay with Escherichia coli, 325 µM (≈ 125 µg/mL); with Streptococcus pyogenes, 649 µM (≈ 251 µg/mL); with Staphylococcus aureus, 812 µM (≈ 313 µg/mL); against Aspergillus clavatus, 3250 µM (≈ 1250 µg/mL). For the same compound, the MIC with Pseudomonas aeruginosa turned out to be 649 µM (≈ 251 µg/mL).

For `CC1=C(C(=O)Nc2ccc(C)cc2C)C(c2cccc([N+](=O)[O-])c2)NC(=S)N1` (configuration not stated), the MIC was determined as 1620 µM (≈ 644 µg/mL) against Candida albicans; 3250 µM (≈ 1290 µg/mL) in the assay on Aspergillus niger; 649 µM (≈ 257 µg/mL) against Escherichia coli; 649 µM (≈ 257 µg/mL) in the assay with Streptococcus pyogenes; 812 µM (≈ 322 µg/mL) with Staphylococcus aureus; 3250 µM (≈ 1290 µg/mL) against Aspergillus clavatus. Besides, in the assay with Pseudomonas aeruginosa, 812 µM (≈ 322 µg/mL) was the least that counted as inhibitory (MIC).

Turning to `CC1=C(C(=O)Nc2ccc(C)cc2C)C(c2ccccc2O)NC(=S)N1` (configuration not stated), the MIC turned out to be 3250 µM (≈ 1190 µg/mL) in the assay with Candida albicans; 3250 µM (≈ 1190 µg/mL) in the assay on Aspergillus niger; 325 µM (≈ 119 µg/mL) in the assay with Escherichia coli; 325 µM (≈ 119 µg/mL) against Streptococcus pyogenes; 812 µM (≈ 298 µg/mL) in the assay on Staphylococcus aureus; 3250 µM (≈ 1190 µg/mL) in the assay with Aspergillus clavatus. Moreover, in the assay with Pseudomonas aeruginosa, the MIC was 406 µM (≈ 149 µg/mL).

For the compound NYSTATIN, the MIC in the assay with Candida albicans, in the assay with Aspergillus niger and against Aspergillus clavatus was 100 µM throughout.

Take `CC1=C(C(=O)Nc2ccc(C)cc2C)C(c2cccc(O)c2)NC(=S)N1` (configuration not stated): the MIC in the assay with Candida albicans is 1620 µM (≈ 597 µg/mL); with Aspergillus niger it was 3250 µM (≈ 1190 µg/mL); against Escherichia coli, 812 µM (≈ 298 µg/mL); with Streptococcus pyogenes, 203 µM (≈ 74.6 µg/mL); against Staphylococcus aureus it was 649 µM (≈ 239 µg/mL); against Aspergillus clavatus it was 3250 µM (≈ 1190 µg/mL). The compound further displayed an MIC with Pseudomonas aeruginosa of 649 µM (≈ 239 µg/mL).

As to `O=C(N[C@H](CO)[C@H](O)c1ccc([N+](=O)[O-])cc1)C(Cl)Cl` [CHLORAMPHENICOL], the MIC in the assay with Escherichia coli, in the assay on Streptococcus pyogenes, with Staphylococcus aureus and in the assay on Pseudomonas aeruginosa was 50 µM (≈ 16.2 µg/mL) throughout.

With `CC1=C(C(=O)Nc2ccc(C)cc2C)C(c2ccccc2[N+](=O)[O-])NC(=S)N1` (configuration not stated), the MIC came to 3250 µM (≈ 1290 µg/mL) in the assay on Candida albicans; 3250 µM (≈ 1290 µg/mL) with Aspergillus niger; 649 µM (≈ 257 µg/mL) with Escherichia coli; 406 µM (≈ 161 µg/mL) in the assay with Streptococcus pyogenes; 649 µM (≈ 257 µg/mL) with Staphylococcus aureus; 3250 µM (≈ 1290 µg/mL) against Aspergillus clavatus. In the assay with Pseudomonas aeruginosa, this compound returned a minimum inhibitory concentration (MIC) of 649 µM (≈ 257 µg/mL).

As a reminder, the MIC is the lowest concentration found to suppress growth. Low values mean inhibition by little substance, high ones a need for much substance.
